In patent publication US10071092B2, “Polymorphic forms of vortioxetine and its pharmaceutically acceptable salts” (ALEMBIC PHARMACEUTICALS LIMITED, priority 2014, dated 2018):
Structures can show the parent of a compound that is named as a salt.

What was measured:
[1] = Moisture content of the solid; type: physicochemical
Procedure: Thermo gravimetric analysis (TGA) used for estimation of solvent/water content of dried material is performed using a TA-instruments TGA-Q500 about 10 mg sample is heated 10°/min in an open pan under nitrogen flow.
Vortioxetine Adipate (30.0 g) and dichloromethane (450 ml) were charged in round bottom flask stirred it for 5 mins. Solution of NaOH (8.1 g in 300 ml water) and solution of NaCl (7.5 g in 75 ml water) were added into above resulting solution and stirred it till clear solution was observed. Organic layer was separated out. HBr in acetic acid (18 g) was added into organic layer and stirred it for 30 mins. Acetic acid (150 ml) was added into reaction mixture. Dichloromethane was distilled out atmospherically from reaction mixture. Acetic acid (200 ml) and water (50 ml) were added into the reaction mixture. Water (1250 ml) was taken into another round bottom flask at 30±5° C. and cooled to 7±3° C. Reaction mixture was added into water containing round bottom flask within 15-30 minutes at 7±3° C. and after addition, reaction mixture's temperature allowed to come to 20±2° C. Reaction mixture was stirred for 30 minutes at 20±2° C. Reaction mixture was filtered and washed it with water (50 ml). Solid was dried to get Vortioxetine Hydrobromide (Form Ad) under vacuum for 6-8 hrs at 45±3° C. (Moisture content of solid is less than 1.0% w/w) […]

[2] = Polymorphic stability on exposure to moisture; type: physicochemical
Procedure: Vortioxetine Adipate (30.0 g) and dichloromethane (450 ml) were charged in round bottom flask stirred it for 5 mins. Solution of NaOH (8.1 g in 300 ml water) and solution of NaCl (7.5 g in 75 ml water) were added into above resulting solution and stirred it till clear solution was observed. Organic layer was separated out. HBr in acetic acid (18 g) was added into organic layer and stirred it for 30 mins. Acetic acid (150 ml) was added into reaction mixture. Dichloromethane was distilled out atmospherically from reaction mixture. Acetic acid (200 ml) and water (50 ml) were added into the reaction mixture. Water (1250 ml) was taken into another round bottom flask at 30±5° C. and cooled to 7±3° C. Reaction mixture was added into water containing round bottom flask within 15-30 minutes at 7±3° C. and after addition, reaction mixture's temperature allowed to come to 20±2° C. Reaction mixture was stirred for 30 minutes at 20±2° C. Reaction mixture was filtered and washed it with water (50 ml). Solid was dried to get Vortioxetine Hydrobromide (Form Ad) under vacuum for 6-8 hrs at 45±3° C. (Moisture content of Vortioxetine Hydrobromide (Form Ad) is less than 1.0% w/w). Vortioxetine Hydrobromide (Form Ad) was exposed at 40% RH and 25° C. for 2 hours to get Vortioxetine Hydrobromide (Form A). (Moisture content of Vortioxetine Hydrobromide (Form A) is between 4.2-4.8% w/w)

Compound | Moisture content ([1]; after Form Ad was exposed at 40% RH and 25° C. for 2 hours) | Moisture content ([1]; solid dried under vacuum for 6-8 hrs at 45±3° C.) | Form change when exposed to moisture [2]
Cc1ccc(Sc2ccccc2N2CCNCC2)c(C)c1 [Vortioxetine Hydrobromide (Form A), Vortioxetine Hydrobromide] | 4.2-4.8 % w/w | – | –
Cc1ccc(Sc2ccccc2N2CCNCC2)c(C)c1 [Vortioxetine Hydrobromide (Form Ad), Vortioxetine Hydrobromide] | – | less than 1.0 % w/w | converts into form A
